For 13 molecules, TGI and GI50 results are on record in PubChem BioAssay (NCI).

The structures appear in SMILES notation.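 Growth conditions: 96-well plates. Treatment: test compound, 48 hours, 5 concentrations. Analysis: linear interpolation between bracketing concentrations; unreached endpoints set to highest concentration. At the GI50, growth is halved. TGI denotes the concentration required for complete inhibition of growth.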 *1 amine or outer side, *2 acyl side, *3 side chain or, on linkers, in order; H or OH if unused. Where a SMILES comes first, the peptide text is derived from it. [ ]: non-standard residue; d: D form. The star is where a group is joined. X12 = NCCCCC(N[*:1])C(=O)CN1CCCC1C(=O)[*:2]; Pentadecanoyl = CCCCCCCCCCCCCCC(=O)*

Test systems include CCRF-CEM leukemia; HCT-116 colon; HOP-62 NSCLC; HS 578T breast; MDA-N; OVCAR-3 ovarian; OVCAR-8 ovarian; SNB-75 CNS; UACC-62 melanoma; MCF7 breast.
What all share (assay): inhibition of tumour cell growth, NCI panel, 48 h

As to `COc1cc(OC)cc(-c2nc3ccccc3c(=O)[nH]2)c1`, the TGI with CCRF-CEM leukemia, with HCT-116 colon, in the experiment with HOP-62 NSCLC, with HS 578T breast, in the experiment with MDA-N and with OVCAR-3 ovarian was more than 100 µM each time. For the same molecule, the values for the TGI in the experiment with OVCAR-8 ovarian, with SNB-75 CNS and with UACC-62 melanoma were 63.8 µM, 58.3 µM and more than 100 µM, respectively.

Consider `CO/C=C(/C(=O)OC)c1ccccc1[C@H]1C[C@@H]1c1ccccc1`, for which the TGI in the experiment on CCRF-CEM leukemia is more than 100 µM; in the experiment with HCT-116 colon, 62.5 µM; in the experiment with HOP-62 NSCLC it was more than 100 µM; with HS 578T breast, more than 100 µM; in the experiment with MCF7 breast it was more than 100 µM; in the experiment with MDA-N it was 71.9 µM. Also, the results for the TGI in the experiment on OVCAR-3 ovarian, with OVCAR-8 ovarian and in the experiment on UACC-62 melanoma were 67.3 µM, more than 100 µM and 37.2 µM, respectively.

Consider `COc1ccc(Nc2ccnc3cc(Cl)ccc23)cc1CN(CCCl)CCCl`, for which the GI50 in the experiment with CCRF-CEM leukemia was 0.664 µM; in the experiment on HCT-116 colon, 1.14 µM; in the experiment with HOP-62 NSCLC it was 1.37 µM; in the experiment with HS 578T breast, 3.14 µM; in the experiment on MCF7 breast, 0.633 µM; in the experiment with OVCAR-3 ovarian it was 1.95 µM. Besides, the GI50 in the experiment on OVCAR-8 ovarian is 2.2 µM. Besides, the TGI in the experiment with HCT-116 colon was 3.84 µM; in the experiment with HOP-62 NSCLC, 4.01 µM; in the experiment with HS 578T breast, more than 100 µM; in the experiment with MCF7 breast, 6.42 µM; in the experiment with OVCAR-3 ovarian it was 6.04 µM; with OVCAR-8 ovarian, more than 100 µM.

On to `CC1CC/C(=C\c2ccc(F)cc2)C2=C1C(c1ccc(F)cc1)NC(=S)N2` (stereo not given), for which the TGI in the experiment with CCRF-CEM leukemia, in the experiment with HCT-116 colon, in the experiment on HS 578T breast, in the experiment on MCF7 breast, in the experiment with MDA-N and with OVCAR-3 ovarian was more than 100 µM throughout. Besides, the TGI with OVCAR-8 ovarian and in the experiment on UACC-62 melanoma was more than 100 µM throughout.

Consider `CN(C)CCSc1nccc(-c2ccc(-c3ccnc(SCCN(C)C)n3)s2)n1`, for which the TGI with CCRF-CEM leukemia worked out at 17.4 µM; with HCT-116 colon, 13.1 µM; in the experiment with HOP-62 NSCLC, 30.6 µM; in the experiment on MCF7 breast, 16.9 µM; with OVCAR-3 ovarian, 31.2 µM; in the experiment with OVCAR-8 ovarian, 31.4 µM. For the same molecule, the figures for the TGI in the experiment with SNB-75 CNS and with UACC-62 melanoma were 28.2 µM and 29.7 µM, respectively.

Regarding `CC(=O)O[C@H]1CC[C@]2(C=O)[C@H]3CC[C@]4(C)[C@@H](C5=CC(=O)OC5)CC[C@]4(O)[C@@H]3CC[C@]2(O)C1`, the TGI was more than 31.6 µM with CCRF-CEM leukemia; 0.5 µM in the experiment on HCT-116 colon; 0.833 µM in the experiment with HOP-62 NSCLC; more than 100 µM in the experiment on HS 578T breast; 0.97 µM with MDA-N; 0.622 µM with OVCAR-3 ovarian. For the same molecule, the figures for the TGI with OVCAR-8 ovarian and in the experiment on UACC-62 melanoma were 1.01 µM and 1.1 µM, respectively.

With `N#CC(NNC(=O)c1c(Cl)c(Cl)c(Cl)c(Cl)c1-c1nc2ccc(C(=O)c3ccccc3)cc2[nH]1)c1cccc(Oc2ccccc2)c1` (stereo not given), the TGI with CCRF-CEM leukemia is 29 µM; in the experiment with HCT-116 colon it was more than 100 µM; in the experiment on HOP-62 NSCLC, 70.2 µM; in the experiment with MCF7 breast, 65.6 µM; with MDA-N, 49.6 µM; in the experiment on OVCAR-3 ovarian, more than 100 µM. Moreover, the TGI with OVCAR-8 ovarian was more than 100 µM; in the experiment with SNB-75 CNS it was 72.8 µM.

Regarding `O=S1(=O)OCCOS(=O)(=O)C1S(=O)(=O)c1cccc2ccccc12`, the TGI is more than 100 µM in the experiment on CCRF-CEM leukemia; 57.1 µM with HCT-116 colon; more than 100 µM with HOP-62 NSCLC; more than 100 µM in the experiment on MCF7 breast; more than 100 µM in the experiment on MDA-N; more than 100 µM with OVCAR-3 ovarian. Also, in the experiment on OVCAR-8 ovarian, the TGI is more than 100 µM.

As to `O=C(N(C1=CCCC1)N(c1ccccc1)c1ccccc1)C(F)(F)F`, the TGI came to 91.8 µM in the experiment with CCRF-CEM leukemia; 63.5 µM in the experiment on HCT-116 colon; 69.4 µM with HOP-62 NSCLC; 44.6 µM in the experiment with MCF7 breast; 65.8 µM in the experiment with MDA-N; 44.4 µM in the experiment with OVCAR-3 ovarian. Also, the TGI in the experiment with OVCAR-8 ovarian, with SNB-75 CNS and in the experiment on UACC-62 melanoma was more than 100 µM in each case.

In the case of `CN1C(=O)[C@](C)(Cc2ccc(F)cc2)N(C(=O)OC(C)(C)C)[C@@H]1C(C)(C)C`, the TGI with CCRF-CEM leukemia is more than 100 µM; in the experiment with HCT-116 colon it was more than 100 µM; in the experiment on HOP-62 NSCLC, more than 100 µM; in the experiment on MCF7 breast it was 59.3 µM; in the experiment with MDA-N, more than 100 µM; in the experiment with OVCAR-3 ovarian it was 84 µM. Moreover, the TGI with OVCAR-8 ovarian is 91.7 µM; in the experiment on SNB-75 CNS, more than 100 µM; in the experiment on UACC-62 melanoma, more than 100 µM.

Turning to `CCOC(=O)CCN1C(=O)c2c(NC(=O)C(=O)O)cccc2S1(=O)=O`, the TGI with CCRF-CEM leukemia, with HCT-116 colon, in the experiment on HOP-62 NSCLC, in the experiment on HS 578T breast, in the experiment on MCF7 breast and in the experiment with MDA-N was more than 100 µM throughout. Moreover, the TGI in the experiment on OVCAR-8 ovarian and in the experiment with UACC-62 melanoma was more than 100 µM in each case.

Regarding `Cc1cnc2cc(Cl)ccc2c1SCC(=O)O`, the TGI in the experiment on CCRF-CEM leukemia, with HCT-116 colon, with HOP-62 NSCLC, with HS 578T breast, in the experiment on MDA-N and in the experiment on OVCAR-3 ovarian was more than 100 µM throughout. Also, the TGI in the experiment with OVCAR-8 ovarian and in the experiment on UACC-62 melanoma was more than 100 µM in each case.

For the molecule `CCCCCCCCCCCCCCC(=O)NC(CCCCN)C(=O)CN1CCCC1C(=O)NCC(=O)NC(Cc1ccccc1)C(=O)N1CCCC1C(=O)NC(CO)C(=O)NC(Cc1ccc(O)cc1)C(=O)NC(CCCCN)C(=O)NC(CC(C)C)C(=O)NC(CCCN=C(N)N)C(=O)N1CCCC1C(=O)NCC(N)=O` (stereo not given) (Pentadecanoyl-[X12]GFPSYKLRPG-NH2; configuration not given here), the GI50 with CCRF-CEM leukemia is 16.8 µM; in the experiment with HCT-116 colon, 14.2 µM; in the experiment on HOP-62 NSCLC, 20.5 µM; in the experiment on HS 578T breast, 38.6 µM; with MCF7 breast, 27.6 µM; in the experiment on OVCAR-3 ovarian it was 28 µM. Further, the GI50 in the experiment with OVCAR-8 ovarian is 27.8 µM; in the experiment on SNB-75 CNS, 27.6 µM. Further, the TGI in the experiment on CCRF-CEM leukemia is 32.2 µM; in the experiment on HCT-116 colon, 29.6 µM; in the experiment on HOP-62 NSCLC it was 45.2 µM; in the experiment on HS 578T breast it was more than 100 µM; with MCF7 breast it was 61.3 µM; with OVCAR-3 ovarian it was 64.6 µM. Moreover, the results for the TGI with OVCAR-8 ovarian and in the experiment on SNB-75 CNS were 64.4 µM and 58.5 µM, respectively.
